Consider 17 compounds from patent US20260355196A1, “INHIBITORS AND DEGRADERS OF PIP4K PROTEIN” (Larkspur Biosciences, Inc., priority 2023, published 2026).

The target of the first test is T1, PIP4K2C (Homo sapiens, UniProt Q8TBX8).
T1 sequence (Q8TBX8 1-421): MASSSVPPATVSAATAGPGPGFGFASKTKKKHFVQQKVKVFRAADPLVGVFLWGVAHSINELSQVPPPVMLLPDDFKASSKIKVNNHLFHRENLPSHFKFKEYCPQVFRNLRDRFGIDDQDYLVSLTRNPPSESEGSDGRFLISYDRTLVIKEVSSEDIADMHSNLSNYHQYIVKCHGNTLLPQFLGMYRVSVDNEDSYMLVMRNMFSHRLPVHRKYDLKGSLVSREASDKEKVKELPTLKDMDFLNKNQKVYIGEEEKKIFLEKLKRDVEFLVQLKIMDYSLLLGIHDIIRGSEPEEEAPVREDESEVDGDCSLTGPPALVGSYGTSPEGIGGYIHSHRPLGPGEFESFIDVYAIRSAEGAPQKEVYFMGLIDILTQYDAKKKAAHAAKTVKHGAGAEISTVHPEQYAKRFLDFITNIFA
Description: HiBiT PIP4K2C degradation assay in MOLT-4 cells (endogenous PIP4K2C C-terminally tagged with HiBiT). The test is classed as cell-based. Also noted: untagged in primary human PBMCs and monocyte-derived dendritic cells. The conditions noted are these: 6 hours of incubation time, rather than 24 hours; MOLT-4, top concentration 10 micromolar; read-out: HiBIT-degradation MOLT4 PIP4k2C DC50 (6 hours, marked *). The essentials:
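DC50 derived by Hill fit of luminescence from Nano-Glo HiBiT lytic detection. Cells were HiBiT knock-in MOLT-4 (C-terminal tag on endogenous PIP4K2C), exposed 6 h or 24 h at 37 C to compound, top concentration 10 micromolar, 3-fold steps, 10 points, duplicates.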
A general note: With HiBiT, luminescence reflects the tagged protein that the partner subunit can reach.
Usually DC50 stands for the concentration at which degradation of the target reaches its halfway point. As for `O=C1CCC(Nc2ccc(C3CCN(C4CCN(C(=O)O[C@H]5CC[C@H](Nc6ncc(F)c(-c7cccc(N8CCOCC8=O)c7)n6)CC5)CC4)CC3)c(F)c2)C(=O)N1` (stereo partly drawn) [Compound 690, trans-4-((5-fluoro-4-(3-(3-oxomorpholino)phenyl)pyrimidin-2-yl)amino)cyclohexyl 4-(4-((2,6-dioxopiperidin-3-yl)amino)-2-fluorophenyl)-[1,4′-bipiperidine]-1′-carboxylate], the DC50 was under 500 nM.

In the case of `O=C1CCC(Nc2ccc(C3CCN(C4CCN(C(=O)O[C@H]5CC[C@H](Nc6ncc(F)c(-c7cccc(-n8ccccc8=O)c7)n6)CC5)CC4(F)F)CC3)c(F)c2)C(=O)N1` (stereo partly drawn) [Compound 648, trans-4-((5-fluoro-4-(3-(2-oxopyridin-1 (2H)-yl)phenyl)pyrimidin-2-yl)amino)cyclohexyl 4-(4-((2,6-dioxopiperidin-3-yl)amino)-2-fluorophenyl)-3′,3′-difluoro-[1,4′-bipiperidine]-1′-carboxylate], the DC50 is over 5000 nM. Still for that read-out and setting: as for `O=C1CC[C@@H](Nc2ccc(N3CCC(N4CCC(C(=O)N[C@H]5CC[C@H](Nc6ncc(F)c(-c7cccc(-c8ccc[nH]c8=O)c7)n6)CC5)CC4)CC3)c(F)c2)C(=O)N1` [Compound 577, trans-1′-(4-(((R)-2,6-dioxopiperidin-3-yl)amino)-2-fluorophenyl)-N-((1r,4r)-4-((5-fluoro-4-(3-(2-oxo-1,2-dihydropyridin-3-yl)phenyl)pyrimidin-2-yl)amino)cyclohexyl)-[1,4′-bipiperidine]-4-carboxamide], the figure is over 5000 nM; as for `O=C1CCC(Nc2ccc(N3CCN(C4CCN(C(=O)O[C@H]5CC[C@H](Nc6ncc(F)c(-c7cccc(N8CCCCC8)c7)n6)CC5)CC4)CC3)c(F)c2)C(=O)N1` (stereo partly drawn) [Compound 687, trans-4-((5-fluoro-4-(3-(piperidin-1-yl)phenyl)pyrimidin-2-yl)amino)cyclohexyl 4-(4-(4-((2,6-dioxopiperidin-3-yl)amino)-2-fluorophenyl)piperazin-1-yl)piperidine-1-carboxylate], under 500 nM; as for `O=C1CCC(Nc2ccc(N3CCN(CC4CCN(C(=O)[C@H]5CC[C@H](Nc6ncc(F)c(-c7cccc(N8CCCCC8=O)c7)n6)CC5)CC4)CC3)c(F)c2)C(=O)N1` (stereo partly drawn) [Compound 393, trans-3-[3-fluoro-4-[4-[[1-[4-[[5-fluoro-4-[3-(2-oxo-1-piperidyl)phenyl]pyrimidin-2-yl]amino]cyclohexanecarbonyl]-4-piperidyl]methyl]piperazin-1-yl]anilino]piperidine-2,6-dione], under 500 nM.

As to `O=C1CCC(Nc2ccc(C3CCN([C@H]4CC[C@H](NC(=O)[C@H]5CC[C@H](Nc6ncc(F)c(-c7cccc(N8CCCCC8)c7)n6)CC5)CC4)CC3)c(F)c2)C(=O)N1` (stereo partly drawn) [Compound 515, trans-N-(trans-4-(4-(4-((2,6-dioxopiperidin-3-yl)amino)-2-fluorophenyl)piperidin-1-yl)cyclohexyl)-4-((5-fluoro-4-(3-(piperidin-1-yl)phenyl)pyrimidin-2-yl)amino)cyclohexane-1-carboxamide], the DC50 was under 500 nM. In the case of `O=C1CCC(Nc2ccc(C3CCN([C@H]4CC[C@H](NC(=O)[C@H]5CC[C@H](Nc6ncc(F)c(-c7cccc(N8CCCCC8=O)n7)n6)CC5)CC4)CC3)c(F)c2)C(=O)N1` (stereo partly drawn) [Compound 546, trans-N-(trans-4-(4-(4-((2,6-dioxopiperidin-3-yl)amino)-2-fluorophenyl)piperidin-1-yl)cyclohexyl)-4-((5-fluoro-4-(6-(2-oxopiperidin-1-yl)pyridin-2-yl)pyrimidin-2-yl)amino)cyclohexane-1-carboxamide], the 50% degradation concentration (DC50) was under 500 nM. Still for that read-out and setting: as for `O=C1CCC(Nc2ccc(N3CCC(N4CC5(CC(C(=O)N[C@H]6CC[C@H](Nc7ncc(F)c(-c8cccc(-n9ccccc9=O)c8)n7)CC6)C5)C4)CC3)c(F)c2)C(=O)N1` (stereo partly drawn) [Compound 575, trans-2-(1-(4-((2,6-dioxopiperidin-3-yl)amino)-2-fluorophenyl)piperidin-4-yl)-N-((1r,4r)-4-((5-fluoro-4-(3-(2-oxopyridin-1(2H)-yl)phenyl)pyrimidin-2-yl)amino)cyclohexyl)-2-azaspiro[3.3]heptane-6-carboxamide], the figure is under 500 nM; as for `O=C1CCC(Nc2ccc(N3CCC(N4CCC(C(=O)N[C@H]5CC[C@H](Nc6ncc(F)c(-c7cccc(N8CCCCC8)c7)n6)CC5)CC4)CC3)c(F)c2)C(=O)N1` (stereo partly drawn) [Compound 516, trans-1′-(4-((2,6-dioxopiperidin-3-yl)amino)-2-fluorophenyl)-N-(4-((5-fluoro-4-(3-(piperidin-1-yl)phenyl)pyrimidin-2-yl)amino)cyclohexyl)-[1,4′-bipiperidine]-4-carboxamide], under 500 nM.

On to `O=C1CCC(Nc2ccc(N3CCN(CC4(F)CCN(C(=O)[C@H]5CC[C@H](Nc6ncc(F)c(-c7cccc(C8CC8)c7)n6)CC5)CC4)CC3)c(F)c2)C(=O)N1` (stereo partly drawn) [Compound 529, trans-3-((4-(4-((1-((1r,4r)-4-((4-(3-cyclopropylphenyl)-5-fluoropyrimidin-2-yl)amino)cyclohexane-1-carbonyl)-4-fluoropiperidin-4-yl)methyl)piperazin-1-yl)-3-fluorophenyl)amino)piperidine-2,6-dione], for which the DC50 was under 500 nM. On the same count and under the same terms, as for `O=C1CCC(Nc2ccc(C3CCN([C@H]4CC[C@H](NC(=O)[C@H]5CC[C@H](Nc6ncc(F)c(-c7cccc(-n8ccccc8=O)c7)n6)CC5)CC4)CC3)c(F)c2)C(=O)N1` (stereo partly drawn) [Compound 401, trans-(1r,4R)—N-((1r,4R)-4-(4-(4-((2,6-dioxopiperidin-3-yl)amino)-2-fluorophenyl)piperidin-1-yl)cyclohexyl)-4-((5-fluoro-4-(3-(2-oxopyridin-1(2H)-yl)phenyl)pyrimidin-2-yl)amino)cyclohexane-1-carboxamide], the figure is under 500 nM.

Staying with this test, now noted: 24 hours incubation, MOLT-4, top concentration 10 micromolar; read-out: HiBIT-degradation MOLT4 PIP4k2C 24 hours DC50.
On to `O=C1CCC(N2Cc3cc(OC4CCN(CCN5CCN(C(=O)[C@H]6CCC[C@@H](Nc7ncc(Cl)c(-c8cccc(-c9ccccc9)c8)n7)C6)CC5)CC4)ccc3C2=O)C(=O)N1` (relative stereo) [Compound 80, cis-3-(5-((1-(2-(4-(3-((4-([1,1′-biphenyl]-3-yl)-5-chloropyrimidin-2-yl)amino)cyclohexane-1-carbonyl)piperazin-1-yl)ethyl)piperidin-4-yl)oxy)-1-oxoisoindolin-2-yl)piperidine-2,6-dione], for which the DC50 is under 500 nM.

As to `Cn1nc(C2CCC(=O)NC2=O)c2ccc(N3CCC(CN4CCC(NC(=O)[C@H]5CCC[C@@H](Nc6ncc(F)c(-c7cccc(-n8ccccc8=O)c7)n6)C5)CC4)CC3)cc21` (relative stereo) [Compound 332, cis-N-(1-((1-(3-(2,6-dioxopiperidin-3-yl)-1-methyl-1H-indazol-6-yl)piperidin-4-yl)methyl)piperidin-4-yl)-3-((5-fluoro-4-(3-(2-oxopyridin-1(2H)-yl)phenyl)pyrimidin-2-yl)amino)cyclohexane-1-carboxamide], the DC50 is under 500 nM. In the case of `CC(C(=O)N1CCC(Nc2ncc(F)c(-c3cccc(-n4ccccc4=O)c3)n2)CC1)N1CCC(CN2CCC(c3ccc4c(c3)oc(=O)n4C3CCC(=O)NC3=O)CC2)CC1` (centres unmarked) [Compound 370, 3-(6-(1-((1-(1-(4-((5-fluoro-4-(3-(2-oxopyridin-1(2H)-yl)phenyl)pyrimidin-2-yl)amino)piperidin-1-yl)-1-oxopropan-2-yl)piperidin-4-yl)methyl)piperidin-4-yl)-2-oxobenzo[d]oxazol-3 (2H)-yl)piperidine-2,6-dione], the DC50 is under 500 nM. On the same count and under the same terms, as for `O=C1CCC(n2c(=O)oc3cc(C4CCN(CCC5CCN(C(=O)[C@H]6CC[C@H](Nc7ncc(F)c(-c8cccc(-c9ccc[nH]c9=O)c8)n7)CC6)CC5)CC4)ccc32)C(=O)N1` (stereo partly drawn) [Compound 368, 3-(6-(1-(2-(1-(trans-4-((5-fluoro-4-(3-(2-oxo-1,2-dihydropyridin-3-yl)phenyl)pyrimidin-2-yl)amino)cyclohexane-1-carbonyl)piperidin-4-yl)ethyl)piperidin-4-yl)-2-oxobenzo[d]oxazol-3 (2H)-yl)piperidine-2,6-dione], the figure is under 500 nM.

As for `O=C1CCC(Nc2ccc(N3CCN([C@H]4CC[C@H](CNC(=O)[C@H]5CCC[C@@H](Nc6ncc(F)c(-c7cccc(-n8ccccc8=O)c7)n6)C5)CC4)CC3)c(F)c2)C(=O)N1` (relative stereo) [Compound 352, cis-N-((trans-4-(4-(4-((2,6-dioxopiperidin-3-yl)amino)-2-fluorophenyl)piperazin-1-yl)cyclohexyl)methyl)-3-((5-fluoro-4-(3-(2-oxopyridin-1(2H)-yl)phenyl)pyrimidin-2-yl)amino)cyclohexane-1-carboxamide], the DC50 is under 500 nM. Same read-out and setting: as for `Cn1c(=O)n(C2CCC(=O)NC2=O)c2ccc(C3CCN(CCN4CCN(C(=O)[C@H]5CCC[C@@H](Nc6ncc(Cl)c(-c7cccc(-c8ccccc8)c7)n6)C5)CC4)CC3)cc21` (relative stereo) [Compound 49, cis-3-(5-(1-(2-(4-(3-((4-([1,1′-biphenyl]-3-yl)-5-chloropyrimidin-2-yl)amino)cyclohexane-1-carbonyl)piperazin-1-yl)ethyl)piperidin-4-yl)-3-methyl-2-oxo-2,3-dihydro-1H-benzo[d]imidazol-1-yl)piperidine-2,6-dione], the figure is under 500 nM.
